{"source": "patent US8299049B2", "about": "“Compositions comprising an extract of Tiarella polyphylla or compounds isolated therefrom for preventing and treating cancer diseases” (Korea Institute of Bioscience and Biotechnology, priority 2007, dated 2012)", "key": {"[1]": {"system": "TM4SF5-null cells including Hek293 and COST fibroblast, MDA-MB-453 breast, SNU638 and SNU668 stomach, and SNU398 liver epithelial cells", "assay": "Cell number of diverse cell lines without TM4SF5 after TA treatment", "assay_type": "cell-based", "details": "TA 5 or 20 μM", "description": "(§1) After virus infection, pooled stable clones (control SNU449Cp and TM4SF5-expressing SNU449Tp cell clones) and single cell-driven stable clones (TM4SF5-expressing SNU449T16) were prepared by infecting SNU449 hepatocytes (Korean Cell Bank, Seoul, Korea) with retrovirus for empty pLNCX or pLNCX with TM4SF5. Parental and control cells (Cp) were maintained in RPMI-1640/10% FBS/0.25 μg/ml gentamycin (Calbiochem, San Diego, Calif.) without or with 200 μg/ml G418 (A.G. Scientific Inc., San Diego, Calif.), respectively, at 37° C. and 5% CO2. Cells endogenously expressing TM4SF5 or cells endogenously expressing no TM4SF5 (Korean Cell Bank) were maintained in either DMEM-H or RPMI-1640 media with 10% FBS (JBI Inc., Daegu, Korea).\n(§2) Next, to confirm that tiarellic acid (TA) is specific to TM4SF5, cytotoxicity of tiarellic acid (TA) was examined using cells with endogenous TM4SF5 expression. RT-PCR was performed using a primer set described in the following Table 1 under the conditions including 30 cycles of 94° C. for 30 sec, 55° C. for 30 sec, and 72° C. for 30 sec. Diverse cell lines were treated with tiarellic acid (TA) at a concentration of 5 or 20 μM."}, "[2]": {"system": "SNU449Tp and SNU449T16 expressing TM4SF5", "assay": "Analysis of cellular DNA content (sub-G1), TM4SF5-expressing cells", "assay_type": "cell-based", "details": "20 μM TA, 24 hr", "from_the_text": "FIG. 19 is the result of analyzing cellular DNA content, after tiarellic acid (TA) treatment;"}, "[3]": {"system": "focal adhesion molecules in TM4SF5-expressing SNU449Tp cell line", "assay": "Immunoblot of focal adhesion molecule expression and activation, SNU449Tp", "assay_type": "cell-based", "details": "FIG. 11", "description": "Whole cell lysates from cells under diverse experimental conditions were prepared, as described in the literature (Lee, S. Y. et al., Focal adhesion and actin organization by a cross-talk of TM4SF5 with integrin α2 are regulated by serum treatment, Exp Cell Res, 312, pp. 2983-99, 2006). For example, cells were subjected to electroporation (950 μF, 250 V) with a control GFP, wild-type focal adhesion kinase (FAK), paxillin, p130Cas cDNA. One day after electroporation, cells were treated with TA (20 μM) for the indicated periods. Cells cultured normally or treated with TA at different concentrations for the indicated periods were harvested using RIPA buffer. Control or tumor tissues from nude mice were frozen immediately after surgery using liquid N2. Tissues in the liquid N2 was homogenized using a mortar and pestle, and extracted using 0.1% SDS containing RIPA buffer. Standard Western blots of lysates were performed by using antibody against phospho-Y^397, Y^407, Y^577, Y^861, Y^925 FAK (BioSource International, Inc., Camarillo, Calif.), phospho-Y^416Src, c-Src, p15^INK4B, p16^INK4A (Santa Cruz Biotech., Santa Cruz, Calif.), FAK, p130Cas, paxillin, pY^118paxillin, active caspase-3 (BD Transduct. Lab., San Jose, Calif.), α-tubulin (Sigma, St Louis, Mo.), phopsho-S^473, or T^308Akt, Akt, phospho-Erk1/2, Erk1/2 (Cell Signaling Tech., Danvers, Mass.), and TM4SF5 (homemade). […]"}, "[4]": {"system": "cells with endogenous TM4SF5 expression", "assay": "Cell number of cell lines with endogenous TM4SF5 expression after TA treatment", "assay_type": "cell-based", "details": "TA 5 or 20 μM", "description": "as §1, §2"}, "[5]": {"system": "TM4SF5-expressing SNU449T16 cells tumors", "assay": "TM4SF5-mediated tumor formation in nude mice", "assay_type": "in vivo", "details": "for tumor volumes decreased to: 30 days", "description": "4-5 week old female nude mice (BALB/cAnNCrjBgi-nu) were purchased from Orient. Co. Ltd. (Seongnam, Korea). The mice were housed in a specific pathogen-free room under controlled temperature and humidity. All animal procedures were performed in accordance with the procedures in Seoul National University Laboratory Animal Maintenance Manual and with IRB agreement. Mice aged 5-6 weeks were injected subcutaneously with 5×10^6 viable SNU449Cp or SNU449T16 cells. Tumor volumes were measured with a caliper and calculated using the following Mathematical Formula 1. When the tumor volume reached 200 mm^3, mice were injected intraperitoneally with 3 mg/kg or 30 mg/kg (body weight) of tiarellic acid (TA) every other day for 30 days. (Width×Length^2)/2 [Mathematical Formula 1]\nWidth: minimal diameter (mm)\nLength: maximal diameter (mm)\nTo evaluate whether tiarellic acid (TA) administration might interfere with TM4SF5 mediated tumor formation in nude mice, the following experiment was performed as described in the literature (Lee S-A et al., TM4SF5-mediated transmodulation between cytosolic p27Kip1 and Rho GTPases and epithelial-mesenchymal transition cause loss of contact inhibition, Cancer Cell, 2007)."}, "[6]": {"system": "SNU449Cp cells expressing no TM4SF5", "assay": "Number of floating cells, SNU449Cp", "assay_type": "cell-based", "details": "TA versus DMSO", "from_the_text": "FIG. 17 is a graph showing the number of floating SNU449Cp and SNU449Tp cells, after tiarellic acid (TA) treatment for various time periods;"}, "[7]": {"system": "TM4SF5-null cells (SNU449P, SNU449Cp)", "assay": "Degree of adhesion on fibronectin-precoated dishes, TM4SF5-null cells", "assay_type": "cell-based", "details": "20 μM TA 24 hr, reseeded on fibronectin 1 hr", "description": "Thus, it could be thought that TA treatment induces anoikis of TM4SF5-expressing cells. To examine whether TA treatment affected cellular adhesion, the following procedure was performed prior to analysis of TA-meditated cell death, as described in the literature (Yang, X. et al., Palmitoylation supports assembly and function of integrin-tetraspanin complexes, J Cell Biol, 167, pp. 1231-40, 2004).\nCells were treated with 20 μM TA for 24 hr, and the floating cells were collected and reseeded on fibronectin-precoated dishes for 1 hr before determination of the degree of adhesion."}, "[8]": {"system": "Akt and caspase-3 in TM4SF5-expressing SNU449T16 cells", "assay": "Western blotting of cell survival and death-related signaling molecules", "assay_type": "cell-based", "details": "various time periods", "description": "FIG. 18 is the result of Western blotting of cell survival and death-related signaling molecules, after tiarellic acid (TA) treatment for various time periods;\nWhole cell lysates from cells under diverse experimental conditions were prepared, as described in the literature (Lee, S. Y. et al., Focal adhesion and actin organization by a cross-talk of TM4SF5 with integrin α2 are regulated by serum treatment, Exp Cell Res, 312, pp. 2983-99, 2006). For example, cells were subjected to electroporation (950 μF, 250 V) with a control GFP, wild-type focal adhesion kinase (FAK), paxillin, p130Cas cDNA. One day after electroporation, cells were treated with TA (20 μM) for the indicated periods. Cells cultured normally or treated with TA at different concentrations for the indicated periods were harvested using RIPA buffer. Control or tumor tissues from nude mice were frozen immediately after surgery using liquid N2. Tissues in the liquid N2 was homogenized using a mortar and pestle, and extracted using 0.1% SDS containing RIPA buffer. […]"}, "[9]": {"system": "TM4SF5", "assay": "Effect of TA treatment on TM4SF5 expression of P, Cp, Tp and T16 cells", "assay_type": "cell-based"}, "[10]": {"system": "TM4SF5-expressing SNU449Tp cells", "assay": "Inhibitory effect on growth of TM4SF5-expressing cell", "assay_type": "cell-based", "description": "as §1"}, "[11]": {"system": "TM4SF5-expressing cells", "assay": "Immunofluorescence of focal adhesions and actin, TM4SF5-expressing cells", "assay_type": "cell-based", "description": "Cells were treated with DMSO or 20 μM TA for 24 hrs. Then, the cells were plated on 10 μg/ml fibronectin-precoated coverslips and incubated for 2 hrs in the presence of DMSO or 20 μM TA. Subsequently, immunofluorescence staining was performed using pY^397 FAK, pY^118 paxillin, and actin, as described in the literature (Lee, S. Y. et al., Focal adhesion and actin organization by a cross-talk of TM4SF5 with integrin α2 are regulated by serum treatment, Exp Cell Res, 312, pp. 2983-99, 2006). Mounted samples were visualized by a fluorescent microscope (BX51, Olympus, Japan)."}}}
{"molecule": "C=C(C)C1CC[C@]2(C)CC[C@]3(C(=O)O)C(CCC4[C@@]5(C)CC[C@H](O)[C@@](C)(CO)C5CC[C@]43C)C12", "note": "(some centres unmarked) [tiarellic acid (TA), 3,23-dihydroxy-20(29)-lupen-27-oic acid]", "values": [{"measurement": "proliferation of TM4SF5-null cells", "setting": "[1]", "value": "not affected"}, {"measurement": "sub-G1 populations (cellular DNA content)", "setting": "[2]", "value": "significant sub-G1 populations"}, {"measurement": "TM4SF5-dependent inhibitory effects on focal adhesion molecules", "setting": "[3]", "value": "inhibitory effects"}, {"measurement": "pErk1/2", "setting": "[3]", "value": "slightly increased"}, {"measurement": "growth of cells with endogenous TM4SF5 expression", "setting": "[4]", "value": "growth suppression"}, {"measurement": "tumor volumes decreased to", "setting": "[5]; 3 mg/kg body weight i.p. every other day", "value": 46.0, "unit": "%"}, {"measurement": "tumor volumes decreased to", "setting": "[5]; 30 mg/kg body weight i.p. every other day", "value": 22.1, "unit": "%"}, {"measurement": "TM4SF5-mediated tumor formation", "setting": "[5]; intraperitoneally every other day for 30 days, established tumors ~200 mm^3", "value": "decreased"}, {"measurement": "number of floating cells", "setting": "[6]", "value": "did not affect"}, {"measurement": "adhesion", "setting": "[7]", "value": "not affected"}, {"measurement": "Akt and caspase-3 activity", "setting": "[8]", "value": "Akt inactivation and caspase-3 activation"}, {"measurement": "expression level of TM4SF5", "setting": "[9]", "value": "without affecting"}, {"measurement": "number of TM4SF5-expressing cells", "setting": "[10]; FIG. 4, depending on concentration and time", "value": "decreased"}, {"measurement": "inhibitory effect on cell growth", "setting": "[10]; SNU449Tp, 5 μM, 3 days", "value": "inhibitory effect was observed"}, {"measurement": "cell density and cell shape", "setting": "[10]; SNU449Tp, 20 μM, 3 days", "value": "reduced cell density and round shaped cells were observed"}, {"measurement": "inhibitory effect on the growth of TM4SF5-expressing cell", "setting": "[10]; TA 0, 0.1, 5, 20 μM", "value": "inhibitory effect"}, {"measurement": "focal adhesions", "setting": "[11]; 20 μM TA", "value": "lost"}, {"measurement": "immunostaining for pY397FAK or pY118paxillin", "setting": "[11]; FIG. 13", "value": "disassembly of focal adhesion molecules was observed"}, {"measurement": "association between integrin α5 and pY397FAK", "setting": "[11]; FIG. 14", "value": "dissociation"}, {"measurement": "actin organization and stress fibers", "setting": "[11]; FIG. 15", "value": "abnormal actin organization with insignificant stress fibers"}]}
